Results taken from patent US9591855B2, “Diindol-3-ylmethanes as potent non-toxic antifouling compounds” (Hong Kong University of Science and Technology, priority 2014, dated 2017).
Like-named read-outs stand apart in the source and are kept apart here.

Key:
[1] = test system: Balanus amphitrite cypris larvae; details: for antifouling activity against B. amphitrite larval settlement (in words): in vivo; for EC50: read-out: EC50 (concentration in which 50% of larval population was inhibited to settle), 28° C., mean ± SD (n = 3); for EC50 / LC50: Balanus amphitrite cypris larvae, 48 h; for LC50: read-out: LC50 (concentration in which 50% of the test larvae population was killed); for antifouling activity in comparison with the butenolide: compared with butenolide
Description: (§3) Newly transformed cyprids were collected for the experiment.
(§4) The experiment for evaluating inhibitory effect of the related compounds on B. amphitrite and B. neritina larvae was conducted in 24-well polystyrene plates (Nunc, Naperville, Ill., Calif., USA). A stock solution of 50 mg ml^−1 of each compound was prepared in DMSO, diluted 1000 times with fresh seawater (FSW) to 50 μg ml^−1, and further diluted by a serial 2-fold dilution to obtain test solutions of seven concentrations ranging from 25 to 0.39 μg mL^−1. Sixteen to twenty larvae were then added to each well with one milliliter of the test solution. There were three replicate wells per solution. […] The 24-well plates were maintained in the dark for 48 h at 28° C. The number of settled larvae (attached and metamorphosed), swimming and dead larvae were counted under a dissecting microscope at 48 hr. The number of the settled larvae was expressed as a percentage of the total number of larvae per well. The mortality rate was determined as the percentage of the dead or missing larvae over the total number of larvae. Each bioassay experiment had three biological replicates and was repeated three times using three different batches of larvae.
(§5) The data were analyzed by one-way analysis of variance (ANOVA) to detect significant differences in larval settlement with regard to the concentration used (p<0.05).
(§6) In the anti-larval settlement assay, the EC50 for percentage of attachment and LC50 for larval mortality were calculated by using the software Probit. Differences in all tests between treatments and controls were determined by one-way ANOVA followed by Tukey's test.

[2] = in vivo; details: Balanus (=Amphibalanus) amphitrite (barnacle, cypris larvae)
Description: as §3, §4, §5, §6

[3] = Larval settlement bioassay, bryozoan larvae; assay type: in vivo, Bugula neritina
Description: (§1) Adult colonies of B. neritina were collected from the floating rafts at a fish farm in Yung SHU O, Hong Kong (22° 24′ N., 114° 21′ E.) and maintained in flow-through sweater for <7 days before use. The larvae were released under certain conditions described in Maki et al. (1989). Under the inducement of a bright artificial light for 20-30 minutes, the adult B. neritina placed in glass tank filled with 0.45 μm filtered seawater released their larvae, which were quickly able to attach and metamorphose. A good number of actively swimming larvae were obtained and immediately used for the anti-larval bioassay.
(§2) There were three replicate wells per solution.

[4] = test system: Bugula neritina larvae; assay: Larval settlement bioassay, bryozoan larvae; assay type: in vivo; details: Bugula neritina, 48 h, read-out: EC50 (concentration in which 50% of larval population was prevented from settling)
Description: as §1, §2

[5] = test system: cyprids of Amphibalanus amphitrite; assay: Recovery (reversibility) bioassay on cyprids; assay type: in vivo
Description: Cyprids were firstly exposed to the concentrations of DIM (1) (25.39 μM) and DIM-Ph-4-OH (8) (73.93 μM) that inhibited 100% of cyprid settlement of Amphibalanus amphitrite. After 24 hr of exposure, the cyprids were transferred to fresh seawater (FSW) and kept in incubator for 48 hr. In the control group, cyprids were kept in FSW without biocides during the course of the experiment. Values presented here were mean±SD (n=3) of the settled and unsettled (swimming) living larvae.
Reversibility tests—Cyprids were exposed and in the laboratory, recovery bioassay was designed and conducted to determine whether antifouling compounds 3,3′-diindolylmethane (DIM) and 4-hydroxyphenyl-3,3′-diindolylmethane (DIM-Ph-4-OH) had any detrimental effect on larvae. […]

[6] = test system: marine fouling organisms (biofoulers); assay: Field test of painted PVC panels at Sai Kung Pier; assay type: in vivo
Text: Photographs show the surface condition of tested panels after submersion in sea water for 5 months. (A) Test panel No. 1, negative control panel coated with the basal paint; […] Asterisks above the bars indicate significant differences from the negative control in Tukey's test (p<0.05, One-way ANOVA). […] (2006) and Xu et al. (2010) with minor modifications. Briefly, the plates were coated with the mixed paints containing the basal ingredients as follows: 0.4, 0.8 and 1.2 g of DIM or Sea-Nine 211TM, 2.5 g of polyacrylic resin, 1.0 g of gum resin, 1.0 g of calcium carbonate, 2.0 g of titanium oxide, 0.2 g of bentonite, and 10.0 ml of xylene. After stirring the paint for 4-5 hr, it was immediately painted onto the sandblasted PVC panels. The painted plates were allowed to dry in dark. […] Calculation of Area Covered by Biofoulers-The condition of the painted surface of each panel was monitored and photographed weekly over a period of 5 months. All the images were analyzed with the ImageJ program (available as a public domain Java image processing software provided by NIH Image). […] Subsequently, the total area covered by biofoulers was calculated and was then divided by the total area of the panel surface to give rise to the percent coverage of biofoulers on each panel.

[7] = Preliminary hydrolysis experiment in natural seawater; assay type: physicochemical; details: after 4 d incubation
[8] = test system: primary mouse neurons; assay: Cytotoxicity to primary mouse neurons; assay type: cell-based
[9] = test system: Balanus amphitrite cypris larvae; details: positive control concentration, Li et al., 2013; cited from earlier work
[10] = test system: Bugula neritina larvae; details: positive control concentration, Li et al., 2013; cited from earlier work
[11] = other: immersion of larvae in test solution in seawater
[12] = Bugula neritina (bryozoan, in vivo, other: immersion of larvae in test solution in seawater), Bugula neritina larvae, 48 h, read-out: LC50 (concentration in which 50% of the test larvae population was killed)
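For antifouling activity against B. amphitrite larval settlement (in words) in this document: larvae held in 24-well plates with compound in seawater, dark, 48 h, settled larvae (attached plus metamorphosed) and dead or missing larvae counted microscopically as percent of total per well.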
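For antifouling activity in comparison with the butenolide in this document: larvae held in 24-well plates with compound in seawater, dark, 48 h, settled larvae (attached plus metamorphosed) and dead or missing larvae counted microscopically as percent of total per well.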
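For inhibition of cyprid settlement in this document: larvae held in 24-well plates with compound in seawater, dark, 48 h, settled larvae (attached plus metamorphosed) and dead or missing larvae counted microscopically as percent of total per well.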

For `OCC(O)C(c1c[nH]c2ccccc12)c1c[nH]c2ccccc12` (stereo not shown) [Compound 3, 3,3′-di-1H-indol-3-yl-1,2-propandiol], the “antifouling activity against B. amphitrite larval settlement (in words)” value (“antifouling activity … (in words)” below) [1] was “least active compound”, the EC50 [1] was 18.6 ± 0.79 µM and the LC50 [1] was > 327 µM.
With `O=C(c1c[nH]c2ccccc12)C(c1c[nH]c2ccccc12)c1c[nH]c2ccccc12` [Compound 5, 1,2,2-tri(1H-indol-3-yl) ethanone] the EC50 [1] was 4.19 ± 0.15 µM and the LC50 at 48 h [2, 11] was > 128 µM.
With `c1ccc2c(Cc3c[nH]c4ccccc34)c[nH]c2c1` [Compound 1, di(1H-indol-3-yl)methane] the LC50 at 48 h ([3]; Bugula neritina (bryozoan, larvae), in vivo) was > 203 µM, the EC50 [4] was 2.54 µM and the “treated cyprids that retained their ability of normal attachment and metamorphosis” value ([5]; 24 hr exposure at 25.39 μM (50 μg mL^−1), then 48 hr in FSW) was 93%. The “biofouling on surface of treated PVC panels” value ([6]; 10% and 15% (w/w) in paint, submerged in seawater 5 months) was “few marine organisms observed”, the “period over which settlement of marine fouling organisms was deterred in field test” value ([6]; field test) was ≥ 3 months and the “degradation in natural seawater” value [7] was ~90%. The “cytotoxicity to primary mouse neurons” value [8] was “non-cytotoxic”, the “inhibition of cyprid settlement” value ([1]; 25.39 μM) was 100% and the “antifouling activity in comparison with the butenolide” value (shortened to “antifouling activity in comparison”) [1] was “comparable antifouling activity”. For the same molecule, the EC50 [1] was 3.27 ± 0.53 µM and the LC50 at 48 h [2] was > 203 µM.
In the case of `Oc1ccc(C(c2c[nH]c3ccccc23)c2c[nH]c3ccccc23)cc1` [Compound 8, 4-(di(1H-indol-3-yl)methyl) phenol], the LC50 at 48 h [3, 12] is reported as > 148 µM, the EC50 [4] is reported as 1.25 µM and the “treated cyprids that retained their ability of normal attachment and metamorphosis” value ([5]; Amphibalanus amphitrite, in vivo, 73.93 μM) is reported as 95%. The “cytotoxicity to primary mouse neurons” value [8] was “non-cytotoxic”, the “inhibition of cyprid settlement” value ([1]; 73.93 μM) was 100% and the “antifouling activity in comparison” value [1] was “comparable antifouling activity”. The “antifouling activity … (in words)” value [1] was “best antifoulant”, the EC50 [1] was 1.86 ± 0.24 µM and the LC50 at 48 h [2, 11] was > 148 µM.
For `CC(c1c[nH]c2ccccc12)c1c[nH]c2ccccc12` [Compound 2, vibrindole A], the EC50 [1] was 5.42 ± 0.19 µM and the LC50 [1] was > 192 µM.
For `c1ccc2[nH]ccc2c1` [Indole, indole, reference compound], the “antifouling activity … (in words)” value [1] was “weak antifouling activity”, the EC50 [1] was 17.5 ± 0.6 µM and the EC50 ([1]; listed as indole) was 17.5 µM. For the same molecule, the LC50 at 48 h [2] was 85.4 µM.
For `CC(=O)Oc1ccc(C(c2c[nH]c3ccccc23)c2c[nH]c3ccccc23)cc1` [Compound 9, 4-[di(1H-indol-3-yl)methyl]phenyl acetate], the LC50 at 48 h [3, 12] was > 132 µM, the EC50 [4] was 4.5 ± 0.42 µM and the “antifouling activity … (in words)” value [1] was “not as high as that of DIM-Ph-4-OH (8)”. For the same molecule, the EC50 [1] was 4.34 ± 0.32 µM and the LC50 at 48 h [2, 11] was > 132 µM.
For `CCCCCCCCn1sc(Cl)c(Cl)c1=O` [Sea-Nine 211™, 4,5-dichloro-2-N-octyl-3(2H)-isothiazolone], the “degradation in natural seawater” value [7] is listed as “no obvious degradation”, the “EC50 value for B. amphitrite” value [9] is listed as 1.90 µg/mL and the “EC50 value for B. neritina” value [10] is listed as 2.50 µg/mL.
For `c1ccc(C(c2c[nH]c3ccccc23)c2c[nH]c3ccccc23)cc1` [Compound 7, 3,3′-(phenylmethylene) bis-1H-indole], the “antifouling activity in comparison” value [1] was “comparable antifouling activity”, the “antifouling activity … (in words)” value [1] was “weaker anti-larval settlement activity than DIM-Ph-4-OH (8)” and the EC50 [1] was 3.57 ± 0.12 µM. For the same molecule, the LC50 at 48 h [2, 11] was > 155 µM.
In the case of `c1ccc2c(C(c3c[nH]c4ccccc34)c3c[nH]c4ccccc34)c[nH]c2c1` [Compound 4, tri(1H-indol-3-yl)methane], the EC50 [1] is reported as 5.81 ± 0.53 µM and the LC50 at 48 h [2, 11] is reported as > 138 µM.
arsindoline A [Compound 6] gave an EC50 [1] of 4.64 ± 0.59 µM.
